Assay results published in patent publication US20180043059A1, “3D Ti-6Al-4V Structures with Hydrogel Matrix” (priority 2016, published 2018).
Entries after “also recorded” stand apart in the source; their conditions may differ. Like-named read-outs stand apart in the source and are kept apart here.

Key:
[1] = test system: HUVECs; test: Combinatorial dose of DFM and D(+) glucose, MTS viability, HUVECs; type: cell-based, Human; conditions: 5 mM glucose, 24 hours
Protocol: (§1) Cells that undergo hypoxia mimetic stress mediated by Hif-1α have been reported to increase their metabolic demands. To test how metabolic demands change in cells exposed to DFM, both HUVECs and MC3T3-E1 cells were exposed to 3.2 μM DFM, 5 mM D(+) glucose and a combination of 3.2 μM DFM+5 mM D(+) glucose for 24 hours. A negative control consisted of both cell types without treatment. The viability of cells was determined by MTS viability assay. The purpose of this approach is to determine whether D(+) glucose can be used as an additive in the hydrogel matrix to improve wound healing and help drive vascularization and osteogenesis process.

[2] = test system: MC3T3-E1 cells; test: Combinatorial dose of DFM and D(+) glucose, MTS viability, MC3T3-E1; type: cell-based, mouse; conditions: 5 mM glucose, 24 hours
Protocol: as §1

[3] = test system: MC3T3-E1 cells
[4] = test system: MC3T3-E1 cells; test: Alizarin Red S (ARS) mineralization assay; type: cell-based, mouse
Text: Because it is expected that pre-osteoblasts differentiate into osteoblasts under a hypoxic condition, cells should mineralize calcium in the ECM. The study of mineralization of ECM can be viewed as a measure or potential for bone formation. In this regard, Alizarin Red Assay (ARS) (Sigma-Aldrich) is used qualitatively and quantitatively to indicate the presence of calcium in the matrix. […] The negative control for this experiment is cells grown in 3D printed foams in complete media with no added glutamate. After incubation, the samples are washed carefully with PBS without disturbing the cell layer and fixed with 4% paraformaldehyde for 30 minutes. The 3D foam structures were then stained with alizarin red (pH˜4.1) in the dark and at room temperature for 30 minutes. Samples are qualitatively studied via light microscope after rinsing with PBS. The calcium nodules should appear red. To conduct quantitative analysis, 10% cetyl pyridinium chloride will be added to remove the alizarin red stain. The absorbance of the solution is measured at 570 nm OD with a spectrophotometric microplate reader.

[5] = test system: HUVECs; test: Total protein content (Bradford); type: cell-based, Human; conditions: endothelial cells exposed to DFM
Protocol: Cells are grown for 6 h, 24 h and 48 h in the presence of DFM at the previously specified 1:5 dilutions. After the desired time periods they are washed with cold 1×PBS and lysed with Radioimmunoprecipitation (RIPA) protein lysis buffer (0.2% Triton X-100+protease inhibitor cocktail) for 30 min in an ice bath. The total protein content in the cells is estimated using the Bradford spectrophotometric protein assay. Briefly, 10 μL of the cell lysate will be mixed with 100 μL of Bradford Reagent (Sigma) and re-suspended to homogenize the solution on a 96 well plate. The absorbance will be measured at 595 nm. A standard plot of absorbance as a function of bovine serum albumin (BSA) concentration will be obtained to determine the concentration value of the experimental and control samples.

[6] = test system: Hif-1α; test: Western blot analysis of Hif-1α in HUVECs exposed to DFM; type: cell-based, Human
Protocol: To further quantify the expression of specific proteins, a western blot analysis is performed for Hif-1α and VEGF165. The western blot analysis was made using the cell lysate previously described. A Sodium Dodecyl Sulfate-Polyacrylamide Gel Electrophoresis (SDS-PAGE) was made (7.5% acrylamide for Hif-1α (93 kDa) and 12% acrylamide for VEGF165 (38 kDa)). The separated proteins are then transferred to a PVDF membrane. The Hif-1α antibody at a 1:1,000 dilution in 1% BSA in 1×TBST buffer was incubated for one hour at room temperature, followed by three 10 min washes with TBST. A secondary anti-rabbit IgG HRP conjugated antibody was incubated for 30 minutes at room temperature, followed also by subsequent washes with TB ST.

[7] = test system: MC3T3-E1 cells; test: Fluorescent microscopy of pre-osteoblasts grown in Ti-6Al-4V foam under DFM; type: cell-based, mouse; conditions: 3.2 μM DFM (low concentration), 21 days
Protocol: Pre-osteoblasts seeded on foam structures were cultured for 7 days to test for similar cell behavior as reported by Nune et al. Cells were seeded at 200,000 cells/well in a 12 well plate, 1 mL total media volume and then stained with Hoechst 33342 cell nuclei dye. A second experiment was performed once the appropriate concentration of DFM was selected. Pre-osteoblasts are seeded at the previously described concentration in the same conditions but exposed to 3.2 μM DFM. Proliferation is observed after 21 days exposure. A second stain is performed with Vybrant® CFDA SE Cell Tracer Kit to visually determine the viability of cells without disturbing the layer of cells grown in the foams. Because the scaffold is solid metal, light cannot be transmitted through it if fully dense. However, due to the foam nature of the scaffold, light may be transmitted though the medium and a visible image can be obtained if the metal section is thin enough. Despite the fact that a thin section makes fluorescent microscopy feasible, since the scaffold is 3D, focus is lost in the z axis and there is a lack of clarity for morphological details. Improvements on microscopy can be done by using Confocal Microscopy instead of Fluorescent Microscopy in order to view in more detail cellular morphology and microcapillary formation. […]

[8] = test system: MC3T3-E1 pre-osteoblast cells
[9] = test system: HUVECs; conditions: cited from earlier work
[10] = test system: HUVECs; test: Induction of angiogenesis (capillary formation) in Matrigel and in foams with gel; type: cell-based, Human
Protocol: It has been previously reported that MC3T3-E1 pre-osteoblast cells undergo differentiation and proliferation when grown in porous foams in glutamine containing media. It has been extensively reported that endothelial cells are able to form capillaries in gels when exposed to DFM [28]. In this experiment, a live angiogenesis monitoring experiment is performed in order to analyze capillarity maturation and cell survival. This analysis is achieved by staining HUVECs with PHK26 Red Fluorescent Dye (Sigma) and MC3T3-E1 cells with PKH67 Green fluorescent dye (Sigma). Both dyes stain cell membranes in an unspecific way, while maintaining cellular viability for an extended period of time. MC3T3-E1 cells are grown in foams as described above, but under hypoxic conditions (3.2 μM DFM). The Ti-6Al-4V foams are pre-incubated with pre-osteoblasts for a total of 7 days, with a negative hypoxia control being cells without any DFM. The cells grown on the foams and gel are monitored throughout the duration of this experiment. The foams are removed from the wells and placed in a 12 well plate and Matrigel® (Corning Life Sciences) will be added until the foam is completely covered. In order to observe microcapillarity formation upon exposure of HUVECs to DFM, the manufacturer specifications are followed. Briefly, Matrigel® is thawed according to specifications (4° C. overnight) and added to a 24 well cell culture plate and allowed to gelate also according to specifications (30-60 minutes at 37° C.). […] The cell suspension is incubated at 37° C., 5% CO2 for 16 to 18 hours on the Matrigel coated plate for 16-18 hours. The formation of microcapillaries is measured by confocal microscopy.

O=C[C@H](O)[C@@H](O)[C@H](O)[C@H](O)CO [D(+) glucose]
viability response to additional D(+) glucose ([1]; compared with MC3T3-E1, listed as D(+) Glucose): Augments Viability Faster
viability response to additional D(+) glucose ([1]; compared with MC3T3-E1, listed as glucose): more positive response
viability response to additional D(+) glucose [2]: not

CC(=O)N(O)CCCCCNC(=O)CCC(=O)N(O)CCCCCNC(=O)CCC(=O)N(O)CCCCCN.CS(=O)(=O)O [DFM, Deferoxamine Mesylate]
cellular proliferation (cell count) ([3]; 24 hour exposure, remaining dilutions, compared to unexposed control): constant cell population numbers, with a slight decrease in numbers
cellular proliferation (cell count) ([3]; lowest concentrations (3.2 μM and 640 nM)): observable increase in proliferation
cellular production of hydroxyapatite, cells grown in foams ([4]; Ti-6Al-4V foams, 3.2 μM DFM): enhanced; also recorded: DFM enhances the cellular production of
synthesis levels of hydroxyapatite versus control ([4]; foams, 3.2 μM DFM, 14 days): increase on par in both settings
amount of cellular hydroxyapatite versus control ([4]; foams, 3.2 μM DFM, 21 days, FIG. 6): dramatically increases
amount of hydroxyapatite versus control ([4]; foams, 3.2 μM DFM, initially (7 days)): comparatively similar amounts of hydroxyapatite to control cells
production of mineralized calcium / hydroxyapatite, cells grown in plates ([4]; plates): increases the production of mineralized calcium; also recorded: DFM enhances the cellular production of
expression of mineralized calcium (ARS) ([4]; plates, 640 nM DFM, 21 days, FIG. 5): highest expression of mineralized calcium
expression of hydroxyapatite compared to control cells ([4]; plates, 640 nM DFM, every instance (7, 14, 21 days)): always in greater amount
levels of total protein synthesized [5]: No obvious changes
total intracellular Hif-1α bands ([6]; 48 hours exposure): still producing definitive bands
Hif-1α levels with increasing DFM concentration (summary) ([6]; HUVECs): Hif-1α levels increased with increasing DFM
Hif-1α expression ([6]; high doses (2 mM) vs normoxia): notably increase
proliferation of pre-osteoblasts in the foam (Hoechst 33342 staining) [7]: proliferating
cellular metabolism (MTS) across drug concentrations ([8]; 24 hours exposure): almost no variation in cellular metabolism
MTS metabolism ([8]; exposure equal or longer than 72 hours): greatly increases
viability at lower concentrations (summary) ([8]; lower concentrations): E1 cells exposed to DFM. Viability increases
cellular viability (summary) ([8]; mouse): Cellular viability does not decrease in MC3T3-
DFM concentration that can stimulate a survival response ([9]; previous reports): ~10 µM
DFM concentration at which HUVECs undergo angiogenesis ([9]; previously reported): approximately 10 μM
maintenance of capillary structure ([10]; HUVECs exposed to 2 mM DFM in Matrigel): maintain their structure for an extended period of time
capillary formation in Matrigel ([10]; HUVECs exposed to 2 mM DFM, 18 hour period, not apparent in control without DFM): readily formed capillaries; also recorded: HUVECs readily undergo migration to form
vascular structure formation in foams with gel ([10]; Ti-6Al-4V foam + Matrigel with pre-incubated MC3T3-E1, HUVECs treated with 2 mM DFM, FIG. 7): HUVECs readily undergo migration to form

CoCl2
MTS metabolism [8]: greatly increases
cellular metabolism (MTS) across drug concentrations [8]: almost no variation in cellular metabolism
viability at lower concentrations (summary) [8]: E1 cells exposed to DFM. Viability increases
